± gives the standard deviation of the reports.
SMILES | glass transition temperature
*C(=O)c1ccc(N(*)CCCCCCCC)cc1 (repeat unit) | 30.00 °C
*CC(*)[Si](C)(C)Cc1ccccc1 (repeat unit) | -24.00 °C
*NC(CCC(=O)OCc1ccc([N+](=O)[O-])cc1)C(*)=O (repeat unit) | 53.2 °C
*CCC(C)C(*)(C)C(=O)OC (repeat unit) | 45.00 °C
*Nc1ccc(*)cc1OCCCCCCCCCC (repeat unit) | 77.00 °C
*C1C(=O)N(c2ccccc2C(=O)OCCCC)C(=O)C1* (repeat unit) | 181.00 °C
*CCCCCCN(C)C(=O)CCCC(=O)N(*)C (repeat unit) | 3.00 °C
*CC(*)(C)C(=O)OCCN(CC)c1ccccc1 (repeat unit) | 37.50 °C
*c1cc(CCCCCCOC(=O)COC)c(*)s1 (repeat unit) | 37.00 °C
*Nc1ccc(NC(=O)c2cc(C(*)=O)c(C(=O)O)cc2C(=O)O)cc1 (repeat unit) | 283.40 °C
*CC(*)C(F)(F)F (repeat unit) [Poly(3,3,3-trifluoropropylene) ] | 27 ± 2.3 °C
*C/C=C/COC(=O)CCCCCCCCC(=O)O* (repeat unit) | -41.00 °C
*CCCCCCNC(=O)CCCCCCCCCCCCCCCCC(=O)N* (repeat unit) | 47.00 °C
*O[Si](*)(C)CCC(F)(F)C(F)(F)C(F)(F)C(F)(F)F (repeat unit) | -75.00 °C
*/C(Cl)=C(/*)CCCCCC (repeat unit) | 150.00 °C
*CC(C)(C)C1C(=O)OC(=O)C1* (repeat unit) | 141.00 °C
*CCCC(C)(C)CCCn1c(=O)c2cc3c(=O)n(*)c(=O)c3cc2c1=O (repeat unit) | 135.00 °C
*CC(*)c1ccc([SiH](C)C)cc1 (repeat unit) | 105.00 °C
*CC(*)(C)C(=O)OCCC[Si](O[Si](C)(C)C)(O[Si](C)(C)C)O[Si](C)(C)C (repeat unit) | 72.4 °C
*CCCCCCCCCCCCNC(=O)CCCCCCCCCCCCCCCCC(=O)N* (repeat unit) | 46.50 °C
*CC(*)OC(=O)c1cccc([N+](=O)[O-])c1 (repeat unit) | 93.00 °C
*CC(C)(C)COC(=O)NC(=O)c1cc(C(=O)NC(=O)O*)cc(C(C)(C)C)c1 (repeat unit) | 144.00 °C
*c1cccc(P(=O)(c2ccccc2)c2cccc(-n3c(=O)c4c(-c5cc(C(F)(F)F)cc(C(F)(F)F)c5)c5c(=O)n(*)c(=O)c5c(-c5cc(C(F)(F)F)cc(C(F)(F)F)c5)c4c3=O)c2)c1 (repeat unit) | 324.00 °C
*CC(=O)NCCCCCCNC(=O)COC(=O)CCC(=O)O* (repeat unit) | 30.00 °C
*CCCCCCOC(=O)C(CCCCP(=O)(O)O)C(=O)OCCCCCCOc1ccc(-n2on2-c2ccc(O*)cc2)cc1 (repeat unit) | 19.00 °C
*C(F)(F)C(*)(OC(F)(F)F)OC(F)(F)F (repeat unit) | -60.00 °C
*CCCCCCOC(=O)OCCCCCCOC(=O)OCCCCCCN1C(=O)c2ccc(C(=O)c3ccc4c(c3)C(=O)N(*)C4=O)cc2C1=O (repeat unit) | 40.00 °C

More lines, now with the values ahead:

glass transition temperature | SMILES
118.00 °C | *CCCCCC(=O)Oc1ccc(-c2ccc(OC(=O)c3ccc4c(c3)C(=O)N(*)C4=O)cc2)cc1 (repeat unit)
397.50 °C | *c1ccc(N2C(=O)c3ccc(-c4ccc5c(c4)C(=O)N(c4ccc6[nH]c(*)nc6c4)C5=O)cc3C2=O)cc1 (repeat unit)
355.00 °C | *C(=O)c1ccc2c(c1)C(=O)N(c1ccc(-c3nc(-c4ccccc4)nc(-c4ccc(N5C(=O)c6ccc(*)cc6C5=O)cc4)n3)cc1)C2=O (repeat unit)
294.50 °C | *c1ccc(S(=O)(=O)c2ccc(-n3nc(-c4ccccc4)c4ccc(Oc5ccc6c(-c7ccccc7)nn(*)c(=O)c6c5)cc4c3=O)cc2)cc1 (repeat unit)
197.00 °C | *Oc1ccc(N(c2ccc(OC)cc2)c2ccc3ccc(N(c4ccc(*)cc4)c4ccc(OC)cc4)cc3c2)cc1 (repeat unit)
209.90 °C | *Sc1ccc2c(c1)Sc1ccc(*)cc1S2 (repeat unit)
252.50 °C | *c1ccc(Oc2ccc(-c3c(-c4ccccc4)nc4ccc(Oc5ccc6nc(-c7ccccc7)c(*)c(-c7ccccc7)c6c5)cc4c3-c3ccccc3)cc2)cc1 (repeat unit)
88.00 °C | *Oc1ccc(OC(=O)c2ccc(OCCCCCCCCCCOc3ccc(C(*)=O)cc3)cc2)cc1S(=O)(=O)c1ccccc1 (repeat unit)
367.00 °C | *C(=O)c1cc2c(cc1Cl)C(=O)N(c1cc(Cl)c(N3C(=O)c4cc(*)c(Cl)cc4C3=O)cc1Cl)C2=O (repeat unit)
162.00 °C | *Oc1ccc(C(c2ccc(OC(=O)c3ccccc3-c3ccccc3C(*)=O)cc2)(C(F)(F)F)C(F)(F)F)cc1 (repeat unit)
255.00 °C | *c1ccc(Oc2ccccc2Oc2ccc(N3C(=O)c4ccc(S(=O)(=O)c5ccc6c(c5)C(=O)N(*)C6=O)cc4C3=O)cc2C(F)(F)F)c(C(F)(F)F)c1 (repeat unit)
44.00 °C | *Oc1cc(OC(=O)c2ccc(OCCCCC)cc2)c(OC(=O)CCCC(*)=O)cc1OC(=O)c1ccc(OCCCCC)cc1 (repeat unit)
106.00 °C | *Oc1ccc(OC(=O)c2ccc(C(*)=O)cc2Oc2ccc(F)cc2)cc1 (repeat unit)
223.00 °C | *c1ccc(Oc2ccc(C(=O)c3ccc(Oc4ccc(C(=O)c5ccc(Oc6ccc(-c7nc8ccccc8n7-c7ccc(-n8c(*)nc9ccccc98)cc7)cc6)cc5)cc4)cc3)cc2)cc1 (repeat unit)
358.00 °C | *C(=O)Nc1cccc(NC(=O)c2ccc3c(c2)C(=O)N(c2cc(-c4nc5ccccc5s4)cc(N4C(=O)c5ccc(*)cc5C4=O)c2)C3=O)n1 (repeat unit)
253.00 °C | *c1ccc(Oc2ccc(NC(=O)c3ccc(Oc4cccc5c4C(=O)N(*)C5=O)cc3)cc2)cc1 (repeat unit)
322.00 °C | *Cc1ccc2nc(-c3cc(-c4nc5ccc(*)cc5c(=O)o4)cc(N4C(=O)c5ccccc5C4=O)c3)oc(=O)c2c1 (repeat unit)
263.00 °C | *c1ccc(C(=O)c2ccc(Oc3ccc(-c4nn(*)c(=O)c5ccccc45)cc3)cc2)cc1 (repeat unit)
267.00 °C | *Oc1ccc(-c2ccc(OC(=O)c3ccc(C(*)=O)cc3)cc2)cc1 (repeat unit)

glass transition temperature | SMILES
275.00 °C | *Oc1cc(C(C)(C)C)c(Oc2ccc(C(=O)Nc3ccc(C(C)(C)c4ccc(NC(=O)c5ccc(*)cc5)c(C)c4)cc3C)cc2)cc1C(C)(C)C (repeat unit)
129.00 °C | *C(=O)OCCCCCOC(=O)c1ccc(NC(=O)c2ccc(N3C(=O)c4ccc(*)cc4C3=O)cc2)cc1 (repeat unit)
107.00 °C | *CC(CO)(CCl)COc1ccc(C(c2ccc(O*)cc2)(C(F)(F)F)C(F)(F)F)cc1 (repeat unit)
166.00 °C | *c1ccc(C(=O)NCCCCCCCCCCNC(=O)c2ccc(-c3nc4ccccc4nc3*)cc2)cc1 (repeat unit)
259.00 °C | *c1ccc(Oc2ccc(C3(c4ccc(Oc5ccc(N6C(=O)c7ccc(Oc8ccc(C9(c%10ccc(Oc%11ccc%12c(c%11)C(=O)N(*)C%12=O)cc%10)CCCCCCCCCCC9)cc8)cc7C6=O)cc5)cc4)CC4CCC3C4)cc2)cc1 (repeat unit)
65.00 °C | *CC(COc1ccc(C(C)(C)c2ccc(O*)cc2)cc1)OC(=O)CCl (repeat unit)
128.00 °C | *Oc1ccc(C(=O)c2ccc(Oc3ccc(C(=O)c4ccc(Oc5ccc(Cc6ccc(*)cc6)cc5)cc4)cc3)cc2)cc1 (repeat unit)
218.00 °C | *c1ccc(S(=O)(=O)c2ccc(-n3nccc3-c3cccc(-c4ccnn4*)c3)cc2)cc1 (repeat unit)
159.00 °C | *Oc1ccc(-c2ccc(Oc3ccc(C(=O)c4cccc(C(=O)c5ccc(*)cc5)c4)cc3)cc2)cc1 (repeat unit)
266.00 °C | *C(=O)Nc1ccc(Oc2ccccc2-c2ccccc2Oc2ccc(NC(=O)c3ccc4c(c3)C(=O)N(c3ccc(C)c(N5C(=O)c6ccc(*)cc6C5=O)c3)C4=O)cc2)cc1 (repeat unit)
183.00 °C | *c1cccc(C(F)(F)C(F)(F)C(F)(F)c2cccc(N3C(=O)c4ccc(Oc5ccc6c(c5)C(=O)N(*)C6=O)cc4C3=O)c2)c1 (repeat unit)
50.00 °C | *CCCCCCCCCOC(=O)c1ccc2cc(C(=O)O*)ccc2c1 (repeat unit)
135.00 °C | *Oc1ccc(C(c2ccc(OC(=O)c3ccc(C(c4ccc(C(*)=O)cc4)(C(F)(F)F)C(F)(F)F)cc3)cc2)(C(F)(F)F)C(F)(F)F)cc1 (repeat unit)
232.00 °C | *c1ccc(Oc2ccc(C(C)(c3ccccc3)c3ccc(Oc4ccc(-c5nc(-c6ccccn6)nnc5*)cc4)cc3)cc2)cc1 (repeat unit)
120.00 °C | *Oc1ccc(/N=C/c2ccc(Oc3ccc(C(C)(C)c4ccc(Oc5ccc(/C=N/c6ccc(Oc7ccc(-c8ccc(*)cc8)cc7)cc6)cc5)cc4)cc3)cc2)cc1 (repeat unit)
287.00 °C | *Oc1c(C)cc(C2(c3cc(C)c(OC(=O)c4ccc(C(*)=O)cc4)c(C)c3)CCC3CCCCC3C2)cc1C (repeat unit)
150.00 °C | *Oc1ccc(C2(c3ccc(OC(=O)CCCCCCCC(*)=O)cc3)c3ccccc3-c3ccccc32)cc1 (repeat unit)
389.00 °C | *Oc1ccc(C(=O)c2ccc(Oc3ccc4c(=O)n5c6cc(-c7ccc8c(c7)nc7c9ccc(*)c%10cccc(c(=O)n87)c%109)ccc6nc5c5cccc3c45)cc2)cc1 (repeat unit)
466.00 °C | *c1ccc(N2C(=O)c3c(c(-c4ccccc4)c(-c4ccc(-c5c(-c6ccccc6)c6c(c(-c7ccccc7)c5-c5ccccc5)C(=O)N(*)C6=O)cc4)c(-c4ccccc4)c3-c3ccccc3)C2=O)cc1 (repeat unit)

Source: the PolyMetriX glass transition set
